The nature of experiment [1]: Cytotoxicity against human KB-3-1 cells. Format: functional, cell-based.
Experiment [2] deals with L1210. Put plainly: Cytotoxicity against mouse L1210 cells. Format: functional, cell-based.
Experiment [3] has as its system P388. Put plainly: Antitumor activity against mouse P388 cells xenografted in B6D2F1 mouse assessed as median survival at 50 mg/kg, ip relative to control. The conditions noted are these: route intraperitoneal. Format: functional.
Experiment [4] deals with MC-38. Put plainly: Antitumor activity against […] cells […] in B6D2F1 mouse assessed as tumor growth at 12.5 mg/kg, ip relative to control. Format: functional. The conditions noted are these: route intraperitoneal.
The test system of experiment [5] is L1210. Put plainly: Ratio of acronycine IC50 to compound IC50 for mouse L1210 cells. Format: functional.
The subject of experiment [6] is L1210. Put plainly: Ratio of IC50 for human KB-3-1 cells to IC50 for mouse L1210 cells. The experiment is classed as functional.
Experiment [7] has as its system P388. Put plainly: Antitumor activity against mouse P388 cells xenografted in B6D2F1 mouse assessed as median survival at 12.5 mg/kg, ip relative to control. The experiment is classed as functional. The conditions noted are these: route intraperitoneal.
Experiment [8] has as its system P388. Briefly: Antitumor activity against mouse P388 cells xenografted in B6D2F1 mouse assessed as median survival at 25 mg/kg, ip relative to control. The experiment is classed as functional. The conditions noted are these: route intraperitoneal.
For experiment [9], the system named is IGROV-1. Put plainly: Antitumor activity against human IGROV1 cells xenografted in BALB/c nude mouse assessed as increase in survival administered twice by intravenous route. The experiment is classed as functional, cell-based.
Experiment [10] relates to OVCAR-3. Briefly: Antitumor activity against human OVCAR-3 cells xenografted in BALB/c nude mouse assessed as increase in survival administered twice by intravenous route. The experiment is classed as functional, cell-based.
Experiment [11] concerns A549. Put plainly: Antitumor activity against human A549 cells xenografted in BALB/c nude mouse assessed as increase in survival administered twice by intravenous route. Format: functional, cell-based.
Experiment [12] has as its system MC-38. Briefly: Antitumor activity against […] cells […] in B6D2F1 mouse assessed as inhibition of tumor growth at 6.25 mg/kg, ip. The experiment is classed as functional. The note with it: MC-38, ip, route intraperitoneal, read-out: TGI.
The subject of experiment [13] is NCI-H460. Put plainly: Antitumor activity against human NCI-H460 cells xenografted in BALB/c nude mouse administered twice 6.25 mg/kg, iv relative to control. Format: functional.
The subject of experiment [14] is NCI-H460. Briefly: Antitumor activity against human NCI-H460 cells xenografted in BALB/c nude mouse assessed as increase in survival administered twice by intravenous route. Format: functional, cell-based.
The subject of experiment [15] is MC-38. Put plainly: Antitumor activity against […] cells […] in B6D2F1 mouse assessed as tumor growth at 6.25 mg/kg, ip relative to control. Format: functional. The note with it: route intraperitoneal.
For experiment [16], the system named is IGROV-1. Briefly: Antitumor activity against human IGROV1 cells xenografted in BALB/c nude mouse administered twice 6.25 mg/kg, iv relative to control. Format: functional.
Experiment [17] concerns P388. Put plainly: Antitumor activity against mouse P388 cells xenografted in B6D2F1 mouse assessed as median survival at 200 mg/kg, ip relative to control. The experiment is classed as functional. The note with it: route intraperitoneal.
The subject of experiment [18] is MC-38. Put plainly: Antitumor activity against […] cells […] in B6D2F1 mouse assessed as tumor growth at 200 mg/kg, ip relative to control. The experiment is classed as functional. The conditions noted are these: route intraperitoneal.
For experiment [19], the system named is SMMC-7721. Briefly: Cytotoxicity against human SMMC7721 cells. The experiment is classed as functional, cell-based.
Experiment [20] deals with HCT-116. Put plainly: Cytotoxicity against human HCT116 cells. Format: functional, cell-based.
Experiment [21] relates to SGC-7901. Put plainly: Cytotoxicity against human SGC7901 cells. The experiment is classed as functional, cell-based.
Experiment [22] concerns A-431. Put plainly: Cytotoxicity against human A431 cells by MTT assay. Format: functional, cell-based.
Experiment [23] has as its system MCF7. Briefly: Cytotoxicity against human MCF7 cells by MTT assay. The experiment is classed as functional, cell-based.
The test system of experiment [24] is HeLa. Put plainly: Cytotoxicity against human HeLa cells by MTT assay. The experiment is classed as functional, cell-based.
Experiment [25] deals with P388. Put plainly: In vivo cytotoxicity against mouse P388 cells at 8 mg/kg relative to control. The experiment is classed as functional.
A short description of experiment [26]: Cytotoxicity against human 9KB cells. The experiment is classed as functional, cell-based.
Setting [27] is: Homo sapiens, A-431, read-out: IC50.
[28] abbreviates: Homo sapiens, HeLa, read-out: IC50.

For `COc1cc2c(c3c1c(=O)c1cc4ccccc4cc1n3C)C[C@H]([C@@]1(C)CO1)O2`, the IC50 in experiment [1] and in experiment [2] was 10 nM in each case.

With `COc1cc2c(c3c1c(=O)c1cc4ccccc4cc1n3C)C[C@H]([C@]1(C)CO1)O2`, the IC50 in experiment [1] and in experiment [2] was 10 nM each time.

As to `COc1cc2c(c3c1c(=O)c1ccccc1n3C)[C@@H](OC(C)=O)[C@@H](OC(=O)c1ccccc1)C(C)(C)O2` (racemic), the T/C in experiment [3] was determined as 201%; in experiment [4] it was 13%. In addition, the “Ratio IC50” value in experiment [5] was determined as 5.

As for `CCC(=O)O[C@@H]1c2c(cc(OC)c3c(=O)c4c5ccccc5ccc4n(C)c23)OC(C)(C)[C@@H]1OC(=O)CC` (racemic), the “Ratio IC50” value in experiment [6] is 3.

As to `COc1cc2c(c3c1c(=O)c1c4ccccc4ccc1n3C)[C@@H](OC(=O)CC(C)C)[C@@H](OC(=O)CC(C)C)C(C)(C)O2` (racemic), in experiment [6], the “Ratio IC50” value is listed as 3.

`COc1cc2c(c3c1c(=O)c1cc4ccccc4cc1n3C)[C@@H](OC(=O)CC(C)C)[C@@H](OC(=O)CC(C)C)C(C)(C)O2` (racemic): the “Ratio IC50” value in experiment [6] was determined as 3.

With `COc1cc2c(c3c1c(=O)c1cc4ccccc4cc1n3C)[C@@H](OC(C)=O)[C@@H](OC(=O)CC(C)C)C(C)(C)O2` (racemic), the “Ratio IC50” value in experiment [6] is 3.

As for `CCC(=O)O[C@@H]1c2c(cc(OC)c3c(=O)c4cc5ccccc5cc4n(C)c23)OC(C)(C)[C@@H]1OC(=O)CC` (racemic), in experiment [6], the “Ratio IC50” value is listed as 3.

With `COc1cc2c(c3c1c(=O)c1c4ccccc4ccc1n3C)[C@@H](OC(C)=O)[C@@H](OC(C)=O)C(C)(C)O2` (racemic), in experiment [6], the “Ratio IC50” value is 3.

On to `COc1cc2c(c3c1c(=O)c1c4ccccc4ccc1n3C)[C@@H](OC(C)=O)[C@@H](OC(=O)CC(C)C)C(C)(C)O2` (racemic), for which the “Ratio IC50” value in [6] came to 3.

As for `COc1cc2c(c3c1c(=O)c1ccccc1n3C)[C@@H](OC(C)=O)[C@H](OC(C)=O)C(C)(C)O2` (racemic), the T/C in experiment [7] came to 181%.

Take `COc1cc2c(c3c1c(=O)c1ccccc1n3C)[C@@H](OC(C)=O)[C@@H](OC(C)=O)C(C)(C)O2` (racemic): the figures for the T/C in [4] and in experiment [8] were 0% and 289%, respectively. The “Ratio IC50” value in experiment [5] is recorded as 5.

For `COc1cc2c(c3c1c(=O)c1cc4ccccc4cc1n3C)[C@@H](OC(C)=O)[C@@H](OC(C)=O)C(C)(C)O2` (racemic), the “Ratio IC50” value in [6] worked out at 3. Moreover, the Activity result in experiment [9], in experiment [10], in experiment [11] and in experiment [14] was “Dose-dependent effect” throughout. In addition, the T/C came out at 327% in experiment [7], 162% in [13], 4% in experiment [15] and 193% in experiment [16]. In experiment [12], the inhibition in vivo at 6.25 mg/kg is 96%.

Take `COc1cc2c(c3c1c(=O)c1ccccc1n3C)C=CC(C)(C)O2` [ACRONINE]: the T/C in experiment [17] came out at 125%; in experiment [18], 4%.

Consider `COc1cc2c(c3c1c(=O)c1c4ccccc4ccc1n3C)C=CC(C)(C)O2` [BENZO[A]ACRONYCINE], for which the “Ratio IC50” value in [5] was found to be 4.

Regarding `COc1cc2c(c3c1c(=O)c1cc4ccccc4cc1n3C)C=CC(C)(C)O2` [BENZO[B]ACRONYCINE], in experiment [5], the “Ratio IC50” value came out at 4.

For `COc1cc2c(c3c1c(=O)c1ccc4ccccc4c1n3C)C=CC(C)(C)O2` [BENZO[C]ACRONYCINE], inhibition in experiment [2] was half-maximal at 12100 nM (IC50).

Consider `C=CC(C)(C)c1c(O)cc(O)c2c(=O)c3c(CC=C(C)C)c(O)c(O)cc3oc12` [CUDRATRICUSXANTHONE A], for which the IC50 in experiment [19], in experiment [20] and in experiment [21] was 4000 nM in each case.

As to `COCC(C)(O)C1Cc2c(cc(O)c3c(=O)c4ccccc4n(C)c23)O1` (centres undefined) [GRAVACRIDONDIOLMONOMETHYL ETHER], the IC50 in experiment [22] (setting [27]), in experiment [23] and in experiment [24] (setting [28]) was 3000 nM each time.

For the compound `Cn1c2ccccc2c(=O)c2c(O)cc3c(c21)CC(C(C)(O)CO)O3` (centres undefined) [GRAVACRIDONDIOL], the IC50 in experiment [22] (setting [27]), in [23] and in experiment [24] (setting [28]) was 3000 nM throughout.

As to `Cn1c2ccccc2c(=O)c2c(O)cc3c(c21)CC(C(O)(CO)CO)O3` (centres undefined) [GRAVACRIDONTRIOL], the IC50 entry in experiment [22] (a-431) and in experiment [24] (hela) was “Active” throughout.

Consider `COc1cc2c(c3oc4c(O)cccc4c(=O)c13)C[C@H]([C@@]1(C)CO1)O2` [PSOROSPERMIN], for which the T/C in [25] is listed as 158%. In experiment [26], this compound registered an IC50 of 290 nM.

Take `C=C(C)[C@H]1Cc2c(cc(O)c3c(=O)c4ccccc4n(C)c23)O1` [RUTACRIDONE]: the IC50 in experiment [22] (setting [27]), in [23] and in experiment [24] (setting [28]) was 3000 nM in each case.
